{
  "source": "paper PMC10002984",
  "about": "“Dual PTP1B/TC-PTP Inhibitors: Biological Evaluation of 3-(Hydroxymethyl)cinnoline-4(1H)-Ones” (International Journal of Molecular Sciences, 2023)",
  "key": {"[1]": {"system": "PTP1B and TC-PTP in the hypothalamic arcuate nucleus", "design": "method as in PMID 30525586", "conditions": "administered to mice; cited from earlier work"}, "[2]": {"molecular_target": "T1, recombinant human PTP1B protein (Homo sapiens, UniProt P18031)", "T1 construct": "purchased Abcam ab51277", "T1 sequence (P18031 1-321 limits assumed)": "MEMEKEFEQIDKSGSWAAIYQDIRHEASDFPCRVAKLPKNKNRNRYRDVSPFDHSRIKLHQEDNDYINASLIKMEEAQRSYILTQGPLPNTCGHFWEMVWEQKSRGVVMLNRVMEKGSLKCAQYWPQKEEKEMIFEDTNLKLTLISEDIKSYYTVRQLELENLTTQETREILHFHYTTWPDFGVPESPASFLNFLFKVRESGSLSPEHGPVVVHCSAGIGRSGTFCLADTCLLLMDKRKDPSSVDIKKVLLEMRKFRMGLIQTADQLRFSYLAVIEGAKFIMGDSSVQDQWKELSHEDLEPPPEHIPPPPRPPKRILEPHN", "test": "Phosphatase activity assay with DiFMUP, PTP1B inhibition", "format": "biochemical", "description": "(§1) The measurement of the activity of the phosphatases PTP1B and TC-PTP and their inhibition was carried out using 6,8-difluoro-4methylumbelliferyl phosphate (DiFMUP), as previously described. The stock solution of recombinant human PTP1B protein (#ab51277, Abcam, Cambridge, UK), at a concentration of 1 µg/µL, was prepared in 25 mM Tris–HCl (pH 7.5), 20% glycerol, 2 mM β-mercaptoethanol, 1 mm EDTA, and 1 mM DTT, and stored at −20 °C. Active human recombinant TC-PTP protein was purchased from Sigma-Aldrich (#SRP0218, Saint Louis, MO, USA) as the aqueous buffer solution at a concentration of 2.9 mg/mL, and aliquots were stored at −80 °C. The fluorogenic substrate DiFMUP (#D6567, Molecular Probes, Thermo Fisher Scientific, Waltham, MA, USA) was dissolved at a concentration of 10 mM in N,N-dimethylformamide and stored in aliquots at −20 °C. The 6,8-difluoro-7-hydroxy-4-methylcoumarin (DiFMU, #D6566, Molecular Probes, Thermo Fisher Scientific, Waltham, MA, USA) was used as a reference fluorescent standard. For the IC50 determination, the assay was carried out in black flat bottom 96-well plates using a reaction volume of 100 µL. The phosphatases (PTP1B or TC-PTP) were preincubated with the tested compounds (0.1–80 µM) in 50 mM HEPES (pH 6.9), 100 mM NaCl, 1 mM EDTA, 2 mM DTT, 0.1 mg/mL BSA for 5 min at 37 °C. The following concentrations of the compounds were studied: 0.1, 0.2, 0.5, 1, 2, 5, 10, 20, 40, and 80 μM. The reactions were initiated by the addition of the fluorogenic substrate DiFMUP and diluted in the assay buffer. Progress curves for hydrolysis reaction were obtained with 25 µM of DiFMUP for 80 ng/mL PTP1B, and 35 µM of DiFMUP for 80 ng/mL TC-PTP. Fluorescence excitation of hydrolyzed DiFMUP and the fluorescent standard DiFMU was monitored at 355 nm and emission was detected at 460 nm for 6–10 min at 30 s intervals in a Fluoroskan Ascent FL microplate reader (Thermo Electron Corporation, Vantaa, Finland). Initial velocities of the reactions were used to calculate the IC50 values using GraphPad Prism.\n(§2) The data on food intake, body weight, and biochemical parameters in rats, as well as the PCR data, were analyzed using the IBM SPSS Statistics 22 software (“IBM”, Armonk, NY, USA), and the results are presented as mean ± standard error of the mean (M ± SEM). All differences are considered significant at p < 0.05. The calculation of the IC50 values of the studied inhibitors for the initial velocities of enzymatic reactions (PTP1B, TC-PTP) was carried out using the nonlinear regression analysis with GraphPad Prism 8 (“GraphPad Software, Inc.”, Boston, MA, USA). The statistical analysis was carried out using the Wilcoxon test for pairwise comparison and Dunn’s test for multiple comparisons."}, "[3]": {"molecular_target": "T2, human recombinant TC-PTP protein (Homo sapiens, UniProt P17706)", "T2 construct": "purchased Sigma-Aldrich SRP0218", "T2 sequence (P17706 1-415)": "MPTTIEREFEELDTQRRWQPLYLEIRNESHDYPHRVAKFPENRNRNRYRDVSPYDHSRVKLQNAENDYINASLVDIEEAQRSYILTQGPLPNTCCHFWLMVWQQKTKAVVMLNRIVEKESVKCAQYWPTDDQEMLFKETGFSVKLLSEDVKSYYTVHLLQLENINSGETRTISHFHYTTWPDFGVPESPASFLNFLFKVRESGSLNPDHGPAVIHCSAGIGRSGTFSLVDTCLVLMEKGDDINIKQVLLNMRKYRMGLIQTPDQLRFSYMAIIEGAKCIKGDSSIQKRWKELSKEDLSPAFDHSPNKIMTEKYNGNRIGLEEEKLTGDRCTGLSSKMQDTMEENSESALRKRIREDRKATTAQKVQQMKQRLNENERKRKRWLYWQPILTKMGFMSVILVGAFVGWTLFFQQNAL", "test": "Phosphatase activity assay with DiFMUP, TC-PTP inhibition", "format": "biochemical", "conditions": "DiFMUP 35 µM, 80 ng/mL TC-PTP, compounds 0.1–80 μM; M ± SEM (n = 24); read-out: IC50 for the inhibitory effect on TC-PTP activity", "description": "as §1, §2"}, "[4]": {"system": "male rats with HFD-induced obesity", "test": "Blood glucose, insulin and leptin levels and insulin resistance index in obese rats", "format": "in vivo, male Wistar rats", "description": "(§3) Further, six groups were formed: control (Con, n = 10), obesity (Ob, n = 10), obese rats with five-day treatment with compounds 1 (Ob + 1, n = 5), 2 (Ob + 2, n = 5), 3 (Ob + 3, n = 10), and 4 (Ob + 4, n = 10). All compounds were administered in DMSO (300 µL) at a daily dose of 7 mg/kg (1 and 2), 8 mg/kg (3), and 10 mg/kg (4) (i.p.), based on the results of the preliminary experiments. The used doses of compounds 1–4, in terms of the number of moles of each compound per kg of animal body weight, were equivalent. Control and obese rats received DMSO in the same volumes (300 µL), instead of the tested compounds. During the five days of the experiment, all animals were transferred to standard food and had free access to food and drinking water. […] The test was carried out on the morning of the next day after the last (fifth) injection of the compounds or DMSO, after a 10 h fast. The rest of the animals (n = 5 in each group) were anesthetized and decapitated on the last day of the experiment. The blood and liver samples were taken to measure blood glucose and hormone levels and gene expression in the liver.\nThe glucose levels in the blood obtained from the tail vein were measured using a glucometer (Life Scan Johnson & Johnson, Denmark) and the test strips “One Touch Ultra” (USA). The levels of insulin and leptin in rat serum were estimated with the “Rat Insulin ELISA” (Mercodia AB, Uppsala, Sweden) and “ELISA for Leptin, Rat” (Cloud-Clone Corporation, Houston, TX, USA) kits. The GTT was carried out using a single injection of glucose (2 g/kg, i.p.) after 10 h of fasting, as described earlier. The blood glucose levels were measured before (0 min) and 15, 30, 60, and 120 min after the glucose load."}, "Shp1 gene": {"system": "Shp1 gene", "test": "Gene expression in the liver of obese rats (qPCR), Shp1 gene", "format": "in vivo, rat", "conditions": "five-day treatment", "description": "as §3\nThe total RNA was isolated from the liver samples of rats using the “ExtractRNA Reagent” (Evrogen, Moscow, Russia), and the samples containing 1 μg of RNA were transcribed to cDNA using the random oligodeoxynucleotide primers and the “MMLV RT kit” (Evrogen, Russia). The amplification procedure was carried out in the mixture containing 10 ng of reverse transcribed product, 0.4 μM of the forward and reverse primers, and the “qPCRmix-HS SYBR + LowROX kit” (Evrogen, Russia). The amplified signals were detected using the “Applied Biosystems® 7500 Real-Time PCR System” (Life Technologies, Carlsbad, CA, USA, Thermo Fisher Scientific Inc., USA). The primers that were used to assess the expression of genes encoding the phosphatase PTP1B, TC-PTP, and SHP1 and the insulin and leptin receptors are presented in Table 4. The obtained data were calculated with the delta–delta Ct method and expressed as a fold expression, relative to the corresponding control. The expression of the gene encoding 18S RNA was used as an endogenous control."}, "PTP1B": {"system": "PTP1B", "design": "method as in doi:10.1134/S0022093018040038", "conditions": "cited from earlier work"}, "rat hypothalamic neurons": {"system": "rat hypothalamic neurons", "design": "method as in doi:10.1134/S0022093018040038", "conditions": "cited from earlier work"}, "diet-induced obese rats": {"system": "diet-induced obese rats", "design": "method as in doi:10.1134/S0022093022060187", "conditions": "cited from earlier work"}, "[5]": {"conditions": "blood, after five-day i.p. treatment, 7 mg/kg (1, 2), 8 mg/kg (3), 10 mg/kg (4), M ± SEM, n = 5"}, "[6]": {"conditions": "blood, before treatment (baseline), M ± SEM, n = 5"}},
  "note": "Marks after values point to notes of the source that are not given here.",
  "data": [
    {"smiles": "CC1=C(O)C(=O)C=C2C1=CC=C1[C@@]2(C)CC[C@@]2(C)[C@@H]3C[C@](C)(C(=O)O)CC[C@]3(C)CC[C@]12C", "note": "[Celastrol]", "values": [
      {"measurement": "activity of both phosphatases (PTP1B, TC-PTP) in the hypothalamic arcuate nucleus", "setting": "[1]", "value": "reduced"},
      {"measurement": "food intake and body weights", "setting": "[1]", "value": "significantly reducing"}
    ]},
    {"smiles": "O=c1c(CO)n[nH]c2ccc(F)cc12", "note": "[Compound 2]", "values": [
      {"measurement": "IC50", "setting": "[2]; DiFMUP 25 µM, 80 ng/mL PTP1B, compounds 0.1–80 μM, M ± SEM (n = 24), read-out: IC50 for the inhibitory effect on PTP1B activity", "value": "6.01 ± 0.59", "unit": "µM"},
      {"measurement": "selectivity for PTP1B compared to that for TC-PTP", "setting": "[2]; from IC50 values of Table 1", "value": "5–7 fold"},
      {"measurement": "IC50", "setting": "[3]", "value": "42.8 ± 9.93", "unit": "µM"},
      {"measurement": "Glucose, After", "setting": "[4]; [5]", "value": "5.68 ± 0.09 ^a mM"},
      {"measurement": "Insulin, After", "setting": "[4]; [5]", "value": "1.19 ± 0.13 ^a,c ng/mL"},
      {"measurement": "Leptin, After", "setting": "[4]; [5]", "value": "2.18 ± 0.22 ^a,c ng/mL"},
      {"measurement": "Glucose, Before", "setting": "[4]; [6]", "value": "5.82 ± 0.22 ^a mM"},
      {"measurement": "Insulin, Before", "setting": "[4]; [6]", "value": "1.65 ± 0.17 ^a ng/mL"},
      {"measurement": "Leptin, Before", "setting": "[4]; [6]", "value": "3.27 ± 0.38 ^a ng/mL"},
      {"measurement": "IR (insulin resistance index), After", "setting": "[4]; product of blood glucose and insulin concentrations, after five-day i.p. treatment, 7 mg/kg (1, 2), 8 mg/kg (3), 10 mg/kg (4)", "value": "6.79 ± 0.76 ^a arb.Units"},
      {"measurement": "IR (insulin resistance index), Before", "setting": "[4]; product of blood glucose and insulin concentrations, before treatment (baseline)", "value": "9.68 ± 1.27 ^a arb.Units"},
      {"measurement": "expression of the Shp1 gene in the liver", "setting": "Shp1 gene", "value": "increased"}
    ]},
    {"smiles": "CCOC(=O)c1ccc2[nH]nc(CO)c(=O)c2c1", "note": "[PI4, ethyl 3-(hydroxymethyl)-4-oxo-1,4-dihydrocinnoline-6-carboxylate]", "values": [
      {"measurement": "activity towards PTP1B", "setting": "PTP1B", "value": "inhibitory activity"},
      {"measurement": "effect on components of the insulin and leptin signaling pathways (Akt, STAT3)", "setting": "rat hypothalamic neurons", "value": "stimulating effect"},
      {"measurement": "body and fat weights", "setting": "diet-induced obese rats", "value": "reduced"},
      {"measurement": "food intake", "setting": "diet-induced obese rats", "value": "suppressed"}
    ]}
  ]
}
